Reference: ChEMBL document CHEMBL3045996, “Use of classical and 3-D QSAR to examine the hydration state of juvenile hormone esterase inhibitors” (Bioorg Med Chem, 2003)

Test: Inhibition of juvenile hormone esterase

## Cc1cccc(C)c1SCC(=O)C(F)(F)F
  pIC50: 6.92

## CCCCCC/C=C\C(=O)C(F)(F)F
  pIC50: 4.1

## CC(CCC1OC1(C)C)CC1OC1c1ccc(C(=O)C(F)(F)F)cc1 (configuration not stated)
  pIC50: 3.3

## COC(C)(C)CCC/C(C)=C\CCSCC(=O)C(F)(F)F
  pIC50: 8.49

## CCCCCCCC(C)SCC(=O)C(F)(F)F (configuration not stated)
  pIC50: 9.77

## O=C(CSc1cccc(Br)c1)C(F)(F)F
  pIC50: 6.06

## O=C(CSc1ccc(Br)cc1)C(F)(F)F
  pIC50: 6.39

## CC(C)=CCCC(C)C/C=C\c1ccc(C(=O)C(F)(F)F)cc1 (configuration not stated)
  pIC50: 6.7

## Cc1cc(C)cc(SCC(=O)C(F)(F)F)c1
  pIC50: 5.74

## CCCCCCCC(CCCC)SCC(=O)C(F)(F)F (configuration not stated)
  pIC50: 7.16

## CCCCCCCC(C)SC(C)C(=O)C(F)(F)F (configuration not stated)
  pIC50: 8.07

## CCCCCCC#CC(=O)C(F)(F)F
  pIC50: 6.4

## O=C(CSc1ccc(Cl)c(Cl)c1)C(F)(F)F
  pIC50: 7.7

## Cc1ccc(CSCC(=O)C(F)(F)F)cc1
  pIC50: 5.2

## CCCCCCCCSC(C(=O)C(F)(F)F)c1ccccc1 (configuration not stated)
  pIC50: 4.09

## O=C(CSCc1ccc(Cl)cc1)C(F)(F)F
  pIC50: 5.34

## Cc1ccccc1SCC(=O)C(F)(F)F
  pIC50: 5.37

## CC(C)(C)SCC(=O)C(F)(F)F
  pIC50: 5.3

## Cc1cc(SCC(=O)C(F)(F)F)ccc1Br
  pIC50: 7.89

## Cc1ccc(SCC(=O)C(F)(F)F)cc1
  pIC50: 6.96

## CCCCCCCCSC(C)C(=O)C(F)(F)F (configuration not stated)
  pIC50: 9.06

## O=C(CSCCc1ccccc1)C(F)(F)F
  pIC50: 5.49

## Cc1cccc(CSCC(=O)C(F)(F)F)c1
  pIC50: 5.1

## COc1ccccc1SCC(=O)C(F)(F)F
  pIC50: 5.7

## CCCCCCCCSC(CC)C(=O)C(F)(F)F (configuration not stated)
  pIC50: 5.32

## CCCCCCCCCCCCCCCCCCSCC(=O)C(F)(F)F
  pIC50: 6.3

## COC(C)(C)CCCC(C)CCSCC(=O)C(F)(F)F (configuration not stated)
  pIC50: 8.12

## CCCCCCCCCCCSCC(=O)C(F)(F)F
  pIC50: 7.37

## CCCCCCCCCCCCc1ccc(CSCC(=O)C(F)(F)F)cc1
  pIC50: 5.8

## CCCCCCCCCCCCS(=O)(=O)CC(=O)C(F)(F)F
  pIC50: 7.21

## Cc1ccc(SCC(=O)C(F)(F)F)cc1C
  pIC50: 7.96

## CCCCCCCCC(=O)C(F)(F)F
  pIC50: 5.17

## CCCCC(C)(C)CC(C)CSCC(=O)C(F)(F)F (configuration not stated)
  pIC50: 7.98

## Cc1ccc(SCC(=O)C(F)(F)F)c(C)c1
  pIC50: 6.04

## CCCCCCCCCCCCC#CC(=O)C(F)(F)F
  pIC50: 8

## O=C(CSc1ccccc1CO)C(F)(F)F
  pIC50: 5.15

## O=C(CSc1ccccc1Cl)C(F)(F)F
  pIC50: 5.68

## O=C(CS(=O)(=O)CCc1ccccc1)C(F)(F)F
  pIC50: 6.31

## CCCCCCCCCCCCC(=O)C(F)(F)F
  pIC50: 7

## CCCCCCCCCCC#CC(=O)C(F)(F)F
  pIC50: 7.57

## CC(C)=CCC/C(C)=C\CCSCC(=O)C(F)(F)F
  pIC50: 8.51

## O=C(C#Cc1ccccc1)C(F)(F)F
  pIC50: 5.27

## CCCCCCCCCCCCCCCCSCC(=O)C(F)(F)F
  pIC50: 6.2

## CCCCCCCCC#CC(=O)C(F)(F)F
  pIC50: 7.24

## O=C(CSc1ccc(O)cc1)C(F)(F)F
  pIC50: 5.21

## CC(C)(C)c1ccc(SCC(=O)C(F)(F)F)cc1
  pIC50: 8.12

## CCC(C)CSCC(=O)C(F)(F)F (configuration not stated)
  pIC50: 5.8

## O=C(CSc1ccccc1)C(F)(F)F
  pIC50: 5.06

## CC(C)(C)c1ccc([S+]([O-])CC(=O)C(F)(F)F)cc1 (configuration not stated)
  pIC50: 7.64

## O=C(c1ccccc1)C(F)(F)F
  pIC50: 3.04

## O=C(CSC1CCCCC1)C(F)(F)F
  pIC50: 5.28

## CCCCCSCC(=O)C(F)(F)F
  pIC50: 6.11

## CCCCCCCCCCCCCCC(=O)C(F)(F)F
  pIC50: 5.14

## Cc1ccccc1CSCC(=O)C(F)(F)F
  pIC50: 4.9

## O=C(CSc1ccc(Cl)cc1)C(F)(F)F
  pIC50: 5.89

## CCCCCCCCSCC(=O)C(F)(F)F
  pIC50: 8.62

## CCCCCCCC(CC)SCC(=O)C(F)(F)F (configuration not stated)
  pIC50: 8.24

## CCCCCCCCS(=O)(=O)CC(=O)C(F)(F)F
  pIC50: 6.9

## CCCCCCCCCCCCCC(=O)C(F)(F)F
  pIC50: 5.41

## CCCCCC/C=C/C(=O)C(F)(F)F
  pIC50: 5.14

## O=C(CSc1ccccc1Oc1ccccc1)C(F)(F)F
  pIC50: 6.66

## O=C(CSc1ccccc1Br)C(F)(F)F
  pIC50: 6.17

## O=C(CSc1c(Cl)c(Cl)c(Cl)c(Cl)c1Cl)C(F)(F)F
  pIC50: 7.8

## O=C(CS(=O)(=O)c1ccccc1)C(F)(F)F
  pIC50: 3.98

## O=C(C[S+]([O-])c1ccccc1)C(F)(F)F (configuration not stated)
  pIC50: 4.21

## CCCCCCCSCC(=O)C(F)(F)F
  pIC50: 8.09

## CCCCCCCCCCCCSCC(=O)C(F)(F)F
  pIC50: 7.82

## CCCCSCC(=O)C(F)(F)F
  pIC50: 5.82

## CCc1ccccc1SCC(=O)C(F)(F)F
  pIC50: 5.54

## CCCCCCCC(CCC)SCC(=O)C(F)(F)F (configuration not stated)
  pIC50: 7.89

## CCCCCCCCCCCCCSCC(=O)C(F)(F)F
  pIC50: 7.35

## CC(C/C=C\c1ccc(C(=O)C(F)(F)F)cc1)CCC1OC1(C)C (configuration not stated)
  pIC50: 6.52

## CC(C)=CCCC(C)CCSCC(=O)C(F)(F)F (configuration not stated)
  pIC50: 8.35

## CCCCCCCCSC(CCC)C(=O)C(F)(F)F (configuration not stated)
  pIC50: 4.09

## O=C(CSC1CCCC1)C(F)(F)F
  pIC50: 5.01

## CCCCCCCCCCSCC(=O)C(F)(F)F
  pIC50: 7.7

## Cc1cc(C(C)(C)C)ccc1SCC(=O)C(F)(F)F
  pIC50: 8.52

## CCCCCCCCCCC(=O)C(F)(F)F
  pIC50: 6.66

## CN(C)c1ccc(SCC(=O)C(F)(F)F)cc1
  pIC50: 7.05

## O=C(CSc1cccc(C(F)(F)F)c1)C(F)(F)F
  pIC50: 5.6

## COc1cccc(SCC(=O)C(F)(F)F)c1
  pIC50: 5.89

## CCCCC#CC(=O)C(F)(F)F
  pIC50: 5.49

## O=C(CSc1ccc(F)cc1)C(F)(F)F
  pIC50: 5.08

## O=C(CSc1cc(Cl)ccc1Cl)C(F)(F)F
  pIC50: 7.64

## CCCCCCC(=O)C(F)(F)F
  pIC50: 3.66

## CCCCCCCCCCCCCCSCC(=O)C(F)(F)F
  pIC50: 6.4

## CC(C)CCSCC(=O)C(F)(F)F
  pIC50: 5.6

## O=C(CSc1cccc(Cl)c1)C(F)(F)F
  pIC50: 6.4

## O=C(CSCCCc1ccccc1)C(F)(F)F
  pIC50: 6.77

## O=C(CSc1ccccc1Nc1ccccc1)C(F)(F)F
  pIC50: 7.52

## COc1ccc(SCC(=O)C(F)(F)F)cc1
  pIC50: 5.89

## O=C(CSCc1ccccc1)C(F)(F)F
  pIC50: 4.82

## CC(C)c1ccccc1SCC(=O)C(F)(F)F
  pIC50: 6.47

## CCCCCCCC/C=C/C(=O)C(F)(F)F
  pIC50: 6.06

## O=C(CSc1cc(Cl)c(Cl)cc1Cl)C(F)(F)F
  pIC50: 7.49

## Cc1ccc(C)c(SCC(=O)C(F)(F)F)c1
  pIC50: 6.77

## CCCCCCCC(=O)C(F)(F)F
  pIC50: 4.17

## CCCCCCCCCCS(=O)(=O)CC(=O)C(F)(F)F
  pIC50: 7.36

## O=C(CSc1c(F)c(F)c(F)c(F)c1F)C(F)(F)F
  pIC50: 4.96

## O=C(CSc1c(Cl)cccc1Cl)C(F)(F)F
  pIC50: 7.11

## CCCCCCCCCSCC(=O)C(F)(F)F
  pIC50: 8.43

## CCCCCCCC[S+]([O-])CC(=O)C(F)(F)F (configuration not stated)
  pIC50: 7.37

## CCCCCCCCCCCCCCCCCC(=O)C(F)(F)F
  pIC50: 4.85

## O=C(CSc1c(F)c(F)cc(F)c1F)C(F)(F)F
  pIC50: 5.92

## O=C(CSCc1ccccc1Cl)C(F)(F)F
  pIC50: 5.18

## Cc1cccc(SCC(=O)C(F)(F)F)c1
  pIC50: 6.89

## COc1ccc(C(=O)C(F)(F)F)cc1
  pIC50: 4.15
